Measured values published in patent US11738031B2, “Compositions and methods for preventing or treating muscle conditions” (The Board of Trustees of the Leland Stanford Junior …, priority 2017, dated 2023).

How the values were obtained:
[1] = published, FDA approved dose range; cited from earlier work
[2] = tested on: endogenous MuSCs in tibialis anterior (TA) muscles; assay: BLI of endogenous MuSC expansion after intramuscular bupivacaine/dmPGE2 (Example 4); type: in vivo, mouse; details: 0.125%, 0.25% or 0.5% BPV in combination with 10 μg dmPGE2, two weeks after injection
Procedure: Double-transgenic Pax7^CreERT2;Rosa26-LSL-Luc mice were generated by crossing Pax7^CreERT2 mice and Rosa26-LSL-Luc mice obtained from Jackson Laboratory (Stock #005125). These genotypes were validated by appropriate PCR-based strategies. All mice from transgenic and wild-type strains were of young age (2-4 months). All experiments were conducted using age and gender-matched controls. As depicted in the experimental scheme shown in FIG. 23A, mice were treated with five consecutive daily intraperitoneal injections of tamoxifen to activate luciferase expression under the control of the Pax7 promoter. A week after the last tamoxifen injection, the tibialis anterior (TA) muscles were injected intramuscularly with 50 μL of a drug mixture containing 0.125%, 0.25%, or 0.5% bupivacaine (BPV) (Cayman Chemical Cat #16618) and 10 μg 16,16-dimethyl prostaglandin E2 (dmPGE2; Tocris, Catalog #4027) using a 30 gauge needle on a Hamilton syringe. The contralateral TA received 50 μL of a mixture containing 0.5% bupivacaine (BPV) and DMSO vehicle as baseline sham control. Bioluminescence was assayed at days 3, 7, 10 and 14 post-injury.
Bioluminescence imaging (BLI) was performed using a Xenogen-100 system, as previously described. Briefly, mice were anesthetized using isofluorane inhalation and administered 120 μL D-luciferin (0.1 mmol/kg, reconstituted in PBS; Caliper LifeSciences) by intraperitoneal injection. BLI was acquired with between 5-60 second exposure at F-stop=1.0 at 5 minutes after luciferin injection. Digital images were recorded and analyzed using Living Image software (Caliper LifeSciences). Images were analyzed with a consistent region-of-interest (ROI) placed over each hindlimb to calculate a bioluminescence signal. A bioluminescence signal was calculated in radiance (p s^−1 cm^−2 sr^−1) value of 10^4 to define a positive threshold signal over background. BLI imaging was performed bi-weekly for 2 weeks after coinjection of BPV with dmPGE2 or vehicle.
The data in FIGS. 23A-C and 24 are shown as the mean±s.e.m. with n=6 mice. […]

CCCCN1CCCCC1C(=O)Nc1c(C)cccc1C (centres unmarked) [bupivacaine]
NOAEL [1]: 0.5%
muscle regeneration (fold change in BLI) vs BPV dose [2]: dose-dependent increase in muscle regeneration
